Data from EP0609289B1, “IMIDAZOLE DERIVATIVES AND PHARMACEUTICAL COMPOSITIONS CONTAINING THE SAME” (THE UPJOHN COMPANY, priority 1991, dated 1993).

The molecules below were run against Angiotensin II receptor (assay: In vitro angiotensin II mesenteric artery receptor binding assay (test 1)). Conditions: rat mesenteric artery membrane fraction, 0.2 nM 125I-Ang II, 22°C, 90 minutes.
Method: I) In vitro angiotensin II mesenteric artery receptor binding assay
According to the method (1) by Gunther et al., a membrane fraction was prepared from mesenteric artery of male rat, […] protein equivalent of it and 0.2 nM ^125I-Ang II as well as various concentrations of test compounds were incubated at 22°C for 90 minutes in an incubation buffer (50 mM Tris-HCl, 120 mM NaCl, 5 mM MgCl2. 0.25% bovine serum albumin, pH 7.2) (reaction volume; 200 µl). The incubated was cooled, and the reaction was stopped by addition of ice-cooled phosphate buffer (10 mM phosphate, 140 mM NaCI, pH 7.4, hereinafter referred to as PBS), and then the reaction solution was filtered through a glass fiber filter (Whatman CF/B), the filter was washed, dried, and then the radioactivity of captured ^125I-angiotensin II which bound to the receptor was measured by a γ-counter. Non-specific bound amount was obtained from the reaction in the presence of 1 µM of unlabeled angiotensin II. […] Res., 17:278-286, 1980].
CCCc1nc2c(n1Cc1ccc(-c3ccccc3-c3nn[nH]n3)cc1)C(=O)N1CC(CC)=C(CC)CN1C2 [Compound No. 390, 6,7-diethyl-5,8-dihydro-2-n-propyl-1-[{2'-(1H-tetrazol-5-yl)biphenyl-4-yl}methyl]-1H,4H-1,3,4a,8a-tetraza-cyclopentanaphthalene-9-one] was tested, and the IC50 was 35 nM.
For CCCc1nc2c(=O)n3n(c(=O)c2[nH]1)C1CCC3(C(C)(C)O)CC1 [Compound No. 323, 5,8-ethano-5-(1-hydroxy-1-methylethyl)-2-n-propyl-5,6,7,8-tetrahydro-1H-1,3,4a,8a-tetraza-cyclopentanaphthalene-4,9-dione], the IC50 was > 100 nM.
With CCCc1nc2c(n1Cc1ccc(-c3ccccc3-c3nnn[nH]3)cc1)C(=O)N1C(c3ccccc3)CCCN1C2 (stereo not shown) [Compound No. 470, 8-phenyl-2-n-propyl-5,6,7,8-tetrahydro-1-[{2'-(1H-tetrazol-5-yl)biphenyl-4-yl}methyl]-1H,4H-1,3,4a,8a-tetraza-cyclopentanaphthalene-9-one] the IC50 was 20 nM.
For CCCCc1nc2c(=O)n3n(c(=O)c2n1Cc1ccc(-c2ccccc2-c2nn[nH]n2)cc1)C1CCC3(C(=O)OC)CC1 [Compound No. 159, methyl 2-n-butyl-5,8-ethano-4,9-dioxo-5,6,7,8-tetrahydro-1-[{2'-(1H-tetrazol-5-yl)biphenyl4-yl}methyl]-1H-1,3,4a,8a-tetraza-cyclopentanaphthalene-5-carboxylate], the IC50 was 5.1 nM.
CCCc1nc2c(=O)n3n(c(=O)c2n1Cc1ccc(-c2ccccc2-c2nn[nH]n2)cc1)CC(CC)=C(CC)C3 [Compound No. 359, 6,7-diethyl-5,8-dihydro-2-n-propyl-5,6,7,8-tetrahydro-1-[{2'-(1H-tetrazol-5-yl)biphenyl-4-yl}methyl]-1H-1,3,4a,8a-tetraza-cyclopentanaphthalene-4,9-dione] showed an IC50 of 35 nM.
CCCc1nc2c(n1Cc1ccc(-c3ccccc3-c3nn[nH]n3)cc1)C(=O)N1CC(C)=C(C)CN1C2 [Compound No. 382, 5,8-dihydro-6,7-dimethyl-2-n-propyl-1-[{2'-(1H-tetrazol-5-yl)biphenyl-4-yl}methyl]-1H,4H-1,3,4a,8a-tetraza-cyclopentanaphthalene-9-one] gave an IC50 of 26 nM.
For CCCc1nc2c(=O)n3n(c(=O)c2n1Cc1ccc(-c2ccccc2-c2nn[nH]n2)cc1)CC(C)=C(C)C3 [Compound No. 67, 5,8-dihydro-6,7-dimethyl-2-n-propyl-1-[(2'-(1H-tetrazol-5-yl)biphenyl-4-yl)methyl]-1H-1,3,4a,8a-tetraza-cyclopentanaphthalene-4,9-dione], the IC50 was 14 nM.
For CCCCc1nc2c(n1Cc1ccc(-c3ccccc3-c3nn[nH]n3)cc1)C(=O)N1C3CCC(C)(CC3)N1C2 [Compound No. 443, 2-n-butyl-5,8-ethano-5-methyl-5,6,7,8-tetrahydro-1-[{2'-(1H-tetrazol-5-yl)biphenyl-4-yl}methyl]-1H,4H-1,3,4a,8a-tetraza-cyclopentanaphthalene-9-one], the IC50 was 1.3 nM.
For CCc1nc2c(n1Cc1ccc(-c3ccccc3-c3nnn[nH]3)cc1)C(=O)N1N(C2)C2(CC)CCC1(CC)CC2 [Compound No. 453, 5,8-diethyl-5,8-ethano-2-ethyl-5,6,7,8-tetrahydro-1-[{2'-(1H-tetrazol-5-yl)biphenyl-4-yl}methyl]-1H,4H-1,3,4a,8a-tetraza-cyclopentanaphthalene-9-one], the IC50 was > 100 nM.
With CCCc1nc2c(=O)n3n(c(=O)c2n1Cc1ccc(-c2ccccc2-c2nnn[nH]2)cc1)C1CCC3(COCC(C)O)CC1 (stereo not shown) [Compound No. 227, 5,8-ethano-5-(2-hydroxypropyl)methoxynethyl-2-n-propyl-5,6,7,8-tetrahydro-1-[{2'-(1H-tetrazol-5-yl)biphenyl-4-yl}methyl]-1H-1,3,4a,8a-tetraza-cyclopentanaphthalene-4,9-dione] the IC50 was 38 nM.
In the case of CCCCc1nc2c(=O)n3n(c(=O)c2n1Cc1ccc(-c2ccccc2-c2nn[nH]n2)cc1)C(C(=O)OCC)CCC3C (stereo not shown) [compound 167, ethyl 2-n-butyl-4,9-dioxo-5-methyl-5,6,7,8-tetrahydro-1-[{2'-(1H-tetrazol-5-yl)biphenyl-4-yl}methyl]-1H-1,3,4a,8a-tetraza-cyclopentanaphthalene-8-carboxylate], the IC50 was 3.2 nM.
With CCCCc1nc2c(=O)n3n(c(=O)c2n1Cc1ccc(C(=O)O)cc1)C1CCC3CC1 [compound 544, 2-n-butyl-1-[(4-carboxyphenyl)methyl]-5,8-ethano-5,6,7,8-tetrahydro-1H-1,3,4a,8a-tetraza-cyclopentanaphthalene-4,9-dione] the IC50 was > 100 nM.
With CCc1nc2c(=O)n3n(c(=O)c2n1Cc1ccc(-c2ccccc2-c2nn[nH]n2)cc1)C1(CC)CCC3(CC)CC1 [compound 355, 5,8-diethyl-5,8-ethano-2-ethyl-5,6,7,8-tetrahydro-1-[{2'-(1H-tetrazol-5-yl)biphenyl-4-yl}methyl]-1H-1,3,4a,8a-tetraza-cyclopentanaphthalene-4,9-dione] the IC50 was > 100 nM.
CCCCc1nc2c(=O)n3n(c(=O)c2n1Cc1ccc(-c2ccccc2-c2nn[nH]n2)cc1)C1(C(=O)OCC)CCC3CC1 [Compound No. 198, ethyl 2-n-butyl-4,9-dioxo-5,8-ethano-5,6,7,8-tetrahydro-1-[{2'-(1H-tetrazol-5-yl)biphenyl-4-yl}methyl]-1H-1,3,4a,8a-tetraza-cyclopentanaphthalene-8-carboxylate] was tested, and the IC50 was > 100 nM.
CCc1nc2c(=O)n3n(c(=O)c2n1Cc1ccc(-c2ccccc2-c2nn[nH]n2)cc1)C1(C)CCC3(C)CC1 [compound 361, 5,8-dimethyl-5,8-ethano-2-ethyl-5,6,7,8-tetrahydro-1-[{2'-(1H-tetrazol-5-yl)biphenyl-4-yl}methyl]-1H-1,3,4a,8a-tetraza-cyclopentanaphthalene-4,9-dione] gave an IC50 of 55 nM.
For CCCc1nc2c(=O)n3n(c(=O)c2n1Cc1ccc(-c2ccccc2-c2nn[nH]n2)cc1)C(C(=O)O)CCC3C (stereo not shown) [compound 56, 4,9-dioxo-5-methyl-2-n-propyl-5,6,7,8-tetrahydro-1-[(2'-(1H-tetrazol-5-yl)biphenyl-4-yl)methyl]-1H-1,3,4a,8a-tetraza-cyclopentanaphthalene-8-carboxylic acid], the IC50 was > 30 nM.
In the case of CCCCc1nc2c(n1Cc1ccc(-c3ccccc3-c3nn[nH]n3)cc1)C(=O)N1N(C2)C2CCC1(C)CC2 [Compound No. 447, 2-n-butyl-5,8-ethano-8-methyl-5,6,7,8-tetrahydro-1-[{2'-(1H-tetrazol-5-yl)biphenyl-4-yl}methyl]-1H,4H-1,3,4a,8a-tetraza-cyclopentanaphthalene-9-one], the IC50 was 2.5 nM.
Molecule CCCCc1nc2c(=O)n3n(c(=O)c2n1Cc1ccc(-c2ccccc2-c2nnn[nH]2)cc1)C(C(=O)NC(C)(C)C)CCC3C (stereo not shown) [Compound No. 210, 2-n-butyl-4,9-dioxo-5-methyl-5,6,7,8-tetrahydro-1-[{2'-(1H-tetrazol-5-yl)biphenyl-4-yl}methyl]-1H-1,3,4a,8a-tetraza-cyclopentanaphthalene-8-carboxy-N-t-butylamide] has an IC50 of 29 nM.
CCCc1nc2c(=O)n3n(c(=O)c2n1Cc1ccc(-c2ccccc2-c2nnn[nH]2)cc1)C(C(=O)NC(C)(C)C)CCC3C (stereo not shown) [Compound No. 209, 4,9-dioxo-5-methyl-2-n-propyl-5,6,7,8-tetrahydro-1-[{2'-(1H-tetrazol-5-yl)biphenyl-4-yl}methyl]-1H-1,3,4a,8a-tetraza-cyclopentanaphthalene-8-carboxy-N-t-butylamide] was tested, and the IC50 was 58 nM.
“2-n-butyl-8-hydroxymethyl-5-methyl-5,6,7,8-tetrahydro-1H,4H-1,3,4a,8a-tetraza-cyclopentanaphthalene-9-one [Compound No. 542]” was tested, and the IC50 was 34 nM.
For CCCc1nc2c(n1Cc1ccc(-c3ccccc3-c3nnn[nH]3)cc1)CN1C3CCC(CC3)N1C2 [Compound No. 523, 5,8-ethano-4,5,6,7,8,9-hexahydro-2-n-propyl-1-[{2'-(1H-tetrazol-5-yl)biphenyl-4-yl}methyl]-1H-1,3,4a,8a-tetraza-cyclopentanaphthalene], the IC50 was > 100 nM.
For CCCCc1nc2c(n1Cc1ccc(-c3ccccc3-c3nnn[nH]3)cc1)CN1C(CO)CCC(C)N1C2=O (stereo not shown) [Compound No. 540, 2-n-butyl-8-hydroxymethyl-5-methyl-5,6,7,8-tetrahydro-1-[{2'-(1H-tetrazol-5-yl)biphenyl-4-yl}methyl]-1H,9H-1,3,4a,8a-tetraza-cyclopentanaphthalene-4-one], the IC50 was 34 nM.
CCCc1nc2c(=O)n3n(c(=O)c2n1Cc1ccc(-c2ccccc2-c2nnn[nH]2)cc1)C1(COCC(=O)OC(C)(C)C)CCC3CC1 [Compound No. 225, 8-t-butoxycarboxylmethoxymethyl-5,8-ethano-2-n-propyl-5,6,7,8-tetrahydro-1-[{2'-(1H-tetrazol-5-yl)biphenyl-4-yl}methyl]-1H-1,3,4a,8a-tetraza-cyclopentanaphthalene-4,9-dione] was tested, and the IC50 was 66 nM.
In the case of CCCCc1nc2c(=O)n3n(c(=O)c2n1Cc1ccc(C(=O)O)cc1)C(C(=O)O)CCC3C (stereo not shown) [compound 121, 2-n-butyl-1-[(4-carboxyphenyl)methyl]-4,9-dioxo-5-methyl-5,6,7,8-tetrahydro-1H-1,3,4a,8a-tetraza-cyclopentanaphthalene-8-carboxylic acid], the IC50 was > 100 nM.
For CCCCc1nc2c(=O)n3n(c(=O)c2n1Cc1ccc(C(=O)O)cc1)C(C)CCC3C(=O)O (stereo not shown) [compound 124, 2-n-butyl-1[(4-carboxyphenyl)methyl]-4,9-dioxo-8-methyl-5,6,7,8-tetrahydro-1H-1,3,4a,8a-tetraza-cyclopentanaphthalene-5-carboxylic acid], the IC50 was > 100 nM.
